Reference: patent publication US4298734A, “Diazaheterocyclopurines and triazolopyrimidines” (Mead Johnson & Company, priority 1979, dated 1981)

What was measured:
[1] = test system: passive cutaneous anaphylaxis reaction (PCA) in the rat; assay: Passive cutaneous anaphylaxis reaction (PCA) in the rat; type: in vivo; parameters: key to PCA, inactive at dose: I: inactive at the specified dose; conditions: for ED50 / PCA, ED50: oral; for inhibition in vivo at 50 mg/kg: oral dose 50 mg./kg.
Method: Antiallergy activity in terms of ability to inhibit the immediate hypersensitivity reaction was measured by means of the passive cutaneous anaphylaxis reaction (PCA) in the rat (Table XI, column 7). The animals were passively sensitized by the intradermal injection of rat reagenic antiserum at various locations on the shaved back skin and 48 hours later the test drug was administered. This was followed by challenge at a predetermined interval, usually 15 minutes, by intravenous injection of egg albumin and Evans' blue dye. The dermal reaction at the sensitized site was evaluated and scored by measuring the diameter of the spot generated at the sensitized intradermal injection site. The values reported in the table are either ED50 values for the test compound in terms of mg./kg. of body weight administered orally, or percent inhibition of the dose specified in parentheses.

[2] = test system: methacholine-induced bronchospasm in the rat; assay: Methacholine-induced bronchospasm (pulmonary ventilation pressure) in anesthetized rat; type: in vivo; conditions: intraduodenal; for ED50 / Methacholine Bronchospasm, ED50: 50% inhibition of bronchospasm; for Methacholine Bronchospasm, percent inhibition: dose 30 mg./kg.; for inhibition in vivo at 10 mg/kg: read-out: Methacholine Bronchospasm, percent inhibition; for inhibition in vivo at 10 mg/kg / Methacholine Bronchospasm, inactive at dose: dose 10 mg./kg.
Source text: Brochodilator activity in vivo (Table XI, column 6) was estimated by determining the dose of test compound required to inhibit methacholine-induced brochospasm in the rat. […] For this test, pulmonary ventilation pressure (PVP) was the parameter measured using anesthetized animals.

[3] = test system: rats actively sensitized with egg albumin and B. pertussis vaccine; assay: Allergic bronchospasm in rats actively sensitized with egg albumin; type: in vivo; conditions: rat, oral, egg albumin challenge, PVP; for ED50: Bordetella pertussis
Method: Antiallergy/bronchodilator studies (Table XI, column 8) were also conducted using rats which were actively sensitized with egg albumin and B. pertussis vaccine as for preparation of the reagenic antisera in the PCA test. Fifteen days following sensitization, the animals were prepared for measurement of PVP as for the methacholine-induced bronchospasm test, and changes in PVP in response to a standardized challenge of egg albumin following treatment with test drug were measured. The values reported in the table are ED50 values in terms of mg./kg. of body weight for the test compound administered orally.

[4] = Anticholinergic action mediating bronchodilator activity
[5] = Anti-allergy and bronchodilator action compared with aminophylline
[6] = Maximum non-toxic dose in mice; conditions: mouse, in vivo, po; per os in mice
Source text: Compounds of Formula I and Formula II are useful as bronchodilators, antiallergy agents in the inhibition of the immediate hypersensitivity reaction, as vasodilators, and as inhibitors of the enzyme phosphodiesterase. The invention includes processes for the treatment of mammals requiring bronchodilation, vasodilation, or having allergy with a non-toxic bronchodilator effective, vasodilator effective, or immediate hypersensitivity reaction inhibiting dose of one of these compounds. The compounds may be administered orally, parenterally, topically by inhalation, or rectally. Effective doses range from about 0.03 mg./kg. of body weight up to the maximum non-toxic dose which can be administered without undue side effects. Maximum non-toxic doses can be determined by standard pharmacologic techniques using mice. The value for the substance of Procedure 3 or 4, a preferred compound for anti-asthma use, is about 250 mg./kg. of body weight per os in mice.

[7] = oral dose 25 mg./kg., read-out: PCA, percent inhibition
[8] = read-out: PCA, percent inhibition
[9] = oral dose 10 mg./kg., read-out: PCA, percent inhibition

Molecule `O=C1c2[nH]c(Br)nc2N(Cc2ccc(Cl)cc2)C2=NCCN12` [Procedure 17] has an inhibition in vivo at 25 mg/kg [1, 7] of 34%.
Molecule `O=C1c2[nH]cnc2N(Cc2ccccn2)C2=NCCN12` [Procedure 10] has an inhibition in vivo at 25 mg/kg [1, 7] of 40%.
Molecule `Cc1nc2c([nH]1)C(=O)N1CCN=C1N2Cc1ccc(Cl)cc1` [Procedure 15] has an ED50 [2] of 1.79 mg/kg and an inhibition in vivo at 30 mg/kg ([1]; oral dose 30 mg./kg., read-out: PCA, percent inhibition) of 40%.
With `Cc1nc2c([nH]1)C(=O)N1CCN=C1N2CC(C)C` [Procedure 63] the ED50 [2] was 3.3 mg/kg, the ED50 [1] was 33.9 mg/kg and the ED50 [3] was 5.4 mg/kg.
With `O=c1c2[nH]cnc2n(Cc2ccc(Cl)cc2)c2nccn12` [Procedure 124] the “Methacholine Bronchospasm, ED50” value [2] was 8.1 mg/kg.
For `CC1N=C2N(Cc3ccc(Cl)cc3)c3nc[nH]c3C(=O)N2C1C` (stereo not drawn) [106(cis)], the “Methacholine Bronchospasm, ED50” value [2] was 3.0 mg/kg and the “PCA, ED50” value [1] was 28.5 mg/kg.
In the case of `O=C1c2[nH]nnc2N(Cc2ccc(Cl)cc2)C2=NCCN12` [Procedure 25], the “PCA, inactive at dose” value ([1]; oral dose 10 mg./kg.) is reported as “I”.
With `CCCCCCCCN1C2=NCCN2C(=O)c2[nH]c(C)nc21` [Procedure 55] the inhibition in vivo at 25 mg/kg [1, 7] was 34.9%.
For `S=C1c2[nH]cnc2N(Cc2ccc(Cl)cc2)C2=NCCN12` [Procedure 75], the “Methacholine Bronchospasm, percent inhibition” value [2] was 21% and the “PCA, inactive at dose” value ([1]; oral dose 25 mg./kg.) was “I”.
For `CCCCn1cnc2c1C(=O)N1CCN=C1N2Cc1ccc(Cl)cc1` [Procedure 24], the inhibition in vivo at 10 mg/kg [2] was 16% and the “PCA, inactive at dose” value ([1]; oral dose 10 mg./kg.) was “I”.
With `Cc1nc2c([nH]1)C(=O)N1CC(C)N=C1N2Cc1ccc(Cl)cc1` (racemic) [Procedure 101] the “Methacholine Bronchospasm, ED50” value [2] was 1.00 mg/kg, the “PCA, ED50” value [1] was 30.2 mg/kg and the “Allergic Bronchospasm, ED50” value [3] was 1.2 mg/kg.
For `CC(C)c1nc2c([nH]1)C(=O)N1CCN=C1N2Cc1ccccc1Cl` [Procedure 16], the “PCA, inactive at dose” value ([1]; oral dose 25 mg./kg.) was “I”.
With `O=C1c2[nH]nnc2N(CCOc2ccccc2)C2=NCCN12` [Procedure 74] the “Methacholine Bronchospasm, inactive at dose” value [2] was “I” and the “PCA, inactive at dose” value ([1]; oral dose 25 mg./kg.) was “I”.
With `CCc1nc2c([nH]1)C(=O)N1CCN=C1N2Cc1ccc(Cl)cc1` [Procedure 14] the inhibition in vivo at 10 mg/kg [2] was 26% and the inhibition in vivo at 50 mg/kg [1, 8] was 29%.
For `CC1N=C2N(Cc3ccc(Cl)cc3)c3nc[nH]c3C(=O)N2C1C` (stereo not drawn) [106(trans)], the “Methacholine Bronchospasm, ED50” value [2] was 5.0 mg/kg and the “PCA, ED50” value [1] was 35.5 mg/kg.
In the case of `CC(C)CN1C2=NCCN2C(=O)c2[nH]cnc21` [Procedure 13], the inhibition in vivo at 10 mg/kg [2] is reported as 63% and the “PCA, inactive at dose” value ([1]; oral dose 25 mg./kg.) is reported as “I”.
Work on `O=C1c2[nH]cnc2N(Cc2ccccc2Cl)C2=NCCN12` [Procedure 6] yielded an inhibition in vivo at 50 mg/kg [1, 8] of 25%.
In the case of `CC1N=C2N(Cc3ccc(Cl)cc3)c3nc[nH]c3C(=O)N2C1C` (mixture of isomers) [106(mixed)], the “Methacholine Bronchospasm, ED50” value [2] is reported as 3.7 mg/kg, the “PCA, ED50” value [1] is reported as 20.3 mg/kg and the “Allergic Bronchospasm, ED50” value [3] is reported as 3.51 mg/kg.
For `O=C1c2[nH]cnc2N(CCCc2ccccc2)C2=NCCN12` [Procedure 62], the inhibition in vivo at 10 mg/kg [2] was 22% and the “PCA, inactive at dose” value ([1]; oral dose 25 mg./kg.) was “I”.
For `CCCCCCCCN1C2=NCCN2C(=O)c2[nH]cnc21` [Procedure 54], the “PCA, inactive at dose” value ([1]; oral dose 25 mg./kg.) was “I”.
In the case of `O=C1c2[nH]cnc2N(CCc2ccc(Cl)cc2)C2=NCCN12` [Procedure 60], the “Methacholine Bronchospasm, inactive at dose” value [2] is reported as “I” and the “PCA, inactive at dose” value ([1]; oral dose 25 mg./kg.) is reported as “I”.
With `O=C1c2[nH]cnc2N(CCOc2ccc(Cl)cc2)C2=NCCN12` [Procedure 57] the inhibition in vivo at 10 mg/kg [2] was 66% and the inhibition in vivo at 25 mg/kg [1, 7] was 31.7%.
With `Cc1nc2c([nH]1)C(=O)N1CCN=C1N2CCOc1ccccc1` [Procedure 58] the ED50 [2] was 0.81 mg/kg, the inhibition in vivo at 25 mg/kg [1, 7] was 29% and the anticholinergic action [4] was “anticholinergic action of a type which mediates improved bronchodilator activity”.
`CC(C)CN1C2=NC(C)CN2C(=O)c2[nH]cnc21` (stereo not shown) [Procedure 109] gave an ED50 [2] of 4.6 mg/kg.
For `CC1CN2C(=O)c3c(ncn3C)N(Cc3ccc(Cl)cc3)C2=N1` (racemic) [Procedure 102], the “Methacholine Bronchospasm, ED50” value [2] was 1.1 mg/kg, the “PCA, ED50” value [1] was 28.9 mg/kg and the “Allergic Bronchospasm, ED50” value [3] was 3.4 mg/kg.
For `O=C1c2[nH]nnc2N(Cc2ccc(F)cc2)C2=NCCN12` [Procedure 27], the inhibition in vivo at 10 mg/kg [2] was 30% and the ED50 [1] was 17.7 mg/kg.
Work on `Cc1nc2c(n1C)C(=O)N1CCN=C1N2Cc1ccc(Cl)cc1` [Procedure 117] yielded an ED50 [2] of 5.7 mg/kg.
For `N=C1c2[nH]cnc2N(Cc2ccc(Cl)cc2)C2=NCCN12` [Procedure 77], the “Methacholine Bronchospasm, percent inhibition” value [2] was 22%.
With `Cn1c(=O)c2[nH]cnc2n(C)c1=O` [Theophylline, reference compound] the ED50 [2] was 19.2 mg/kg and the ED50 [1] was 41.5 mg/kg.
Work on `CC(C)c1nc2c([nH]1)C(=O)N1CCN=C1N2CCOc1ccccc1` [Procedure 108] yielded an ED50 [2] of 4 mg/kg.
For `COc1ccccc1CN1C2=NCCN2C(=O)c2[nH]cnc21` [Procedure 9], the “PCA, inactive at dose” value ([1]; oral dose 10 mg./kg.) was “I”.
For `O=C1c2[nH]cnc2N(Cc2ccc(F)cc2)C2=NCCN12` [Procedure 8], the inhibition in vivo at 10 mg/kg [2] was 55.5% and the inhibition in vivo at 10 mg/kg [1, 9] was 29%.
With `O=C1c2[nH]cnc2N(Cc2ccccc2)C2=NCCN12` [Procedure 23] the “PCA, inactive at dose” value ([1]; oral dose 25 mg./kg.) was “I”.
In the case of `COc1ccc(CCN2C3=NCCN3C(=O)c3[nH]nnc32)cc1OC` [Procedure 26], the inhibition in vivo at 10 mg/kg [1, 9] is reported as 41%.
With `O=C1c2[nH]cnc2N(CCOc2ccccc2)C2=NCCN12` [Procedure 12] the ED50 [2] was 2.3 mg/kg, the inhibition in vivo at 25 mg/kg [1, 7] was 27% and the anticholinergic action [4] was “anticholinergic action of a type which mediates improved bronchodilator activity”.
`CC1(C)CN2C(=O)c3nc[nH]c3N(Cc3ccc(Cl)cc3)C2=N1` [Procedure 104] gave an ED50 [2] of 6.3 mg/kg, an ED50 [1] of 42.8 mg/kg and an ED50 [3] of 3 mg/kg. For the same molecule, the “anti-allergy and bronchodilator action relative to aminophylline” value [5] was “more potent than aminophylline in anti-allergy and bronchodilator action”.
Work on `Cn1c(Br)nc2c1C(=O)N1CCN=C1N2Cc1ccc(Cl)cc1` [Procedure 46] yielded an ED50 [2] of over 30 mg/kg.
In the case of `CCCCCCCCN1C2=NCCN2C(=O)c2[nH]c(C(C)C)nc21` [Procedure 56], the inhibition in vivo at 25 mg/kg [1, 7] is reported as 25%.
For `O=C1c2[nH]cnc2N(Cc2ccc(Cl)c(Cl)c2)C2=NCCN12` [Procedure 7], the “PCA, inactive at dose” value ([1]; oral dose 25 mg./kg.) was “I”.
In the case of `Cn1cnc2c1C(=O)N1CCN=C1N2Cc1ccc(Cl)cc1` [Procedure 67], the “Methacholine Bronchospasm, ED50” value [2] is reported as 8.8 mg/kg and the “PCA, percent inhibition” value ([1]; oral dose 25 mg./kg.) is reported as 26%.
In the case of `O=C1c2[nH]cnc2N(CC2CCCCC2)C2=NCCN12` [Procedure 59], the inhibition in vivo at 10 mg/kg [2] is reported as 45.8% and the inhibition in vivo at 25 mg/kg [1, 7] is reported as 29%.
With `O=C1c2[nH]cnc2N(Cc2ccc(Cl)cc2)C2=NCCN12` [Procedure 3] the ED50 [2] was 5.2 mg/kg, the ED50 [1] was 33.7 mg/kg and the ED50 [3] was 2.9 mg/kg. For the same molecule, the MTD [6] was about 250 mg/kg.
`COc1ccc(CCN2C3=NCCN3C(=O)c3[nH]cnc32)cc1OC` [Procedure 11] gave an inhibition in vivo at 10 mg/kg [1, 9] of 25%.
In the case of `CC1CN2C(=O)c3[nH]cnc3N(Cc3ccc(Cl)cc3)C2=N1` (racemic) [Procedure 100], the “Methacholine Bronchospasm, ED50” value [2] is reported as 2.1 mg/kg, the “PCA, ED50” value [1] is reported as 10.6 mg/kg and the “Allergic Bronchospasm, ED50” value [3] is reported as 1.5 mg/kg.
Work on `O=C1c2[nH]cnc2N(Cc2cccc(Cl)c2)C2=NCCN12` [Procedure 5] yielded an inhibition in vivo at 10 mg/kg [2] of 64% and an inhibition in vivo at 50 mg/kg [1, 8] of 43%.
For `CC(C)CN1C2=NCCN2C(=O)c2c1ncn2CCOc1ccccc1` [Procedure 39], the inhibition in vivo at 10 mg/kg [2] was 34.7% and the “PCA, inactive at dose” value ([1]; oral dose 25 mg./kg.) was “I”.
For `O=C1c2[nH]nnc2N(Cc2ccc(Cl)c(Cl)c2)C2=NCCN12` [Procedure 28], the “PCA, inactive at dose” value ([1]; oral dose 10 mg./kg.) was “I”.
In the case of `O=C1c2c(ncn2Cc2ccc(F)cc2)N(Cc2ccc(F)cc2)C2=NCCN12` [Procedure 44], the inhibition in vivo at 10 mg/kg [2] is reported as 0% and the “PCA, inactive at dose” value ([1]; oral dose 10 mg./kg.) is reported as “I”.
For `CC(C)C(=O)N1C2=NCCN2C(=O)c2[nH]c(C(C)C)nc21` [Procedure 20], the inhibition in vivo at 25 mg/kg [1, 7] was 46%.
